# Source: ChEMBL document CHEMBL4371007, “Biased Ligands of G Protein-Coupled Receptors (GPCRs): Structure-Functional Selectivity Relationships (SFSRs) and Therapeutic Potential” (J Med Chem, 2018)
# Assays:
# Adenosine receptor A3 [1] = target: T1, Adenosine receptor A3 (Homo sapiens, UniProt P0DMS8); test: Agonist activity at human adenosine A3 receptor expressed in FlpIn-CHO cells assessed as inhibition of forskolin-mediated cAMP accumulation preincubated for 10 mins followed by forskolin addition measured after 30 mins by alphascreen assay; assay type: functional, cell-based
# T1 sequence (P0DMS8 whole entry): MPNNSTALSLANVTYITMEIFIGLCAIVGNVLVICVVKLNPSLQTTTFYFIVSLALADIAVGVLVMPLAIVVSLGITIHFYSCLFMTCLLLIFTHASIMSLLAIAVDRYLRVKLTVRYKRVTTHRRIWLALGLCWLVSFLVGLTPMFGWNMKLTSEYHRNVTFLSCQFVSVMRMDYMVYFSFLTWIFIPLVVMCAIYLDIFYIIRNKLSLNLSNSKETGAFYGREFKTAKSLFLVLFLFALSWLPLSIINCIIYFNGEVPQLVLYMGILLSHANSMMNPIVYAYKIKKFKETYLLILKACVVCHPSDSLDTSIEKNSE
# [2] = target: T2, Adenosine receptor A3 (Homo sapiens) (UniProt P0DMS8); test: Agonist activity at human adenosine A3 receptor expressed in FlpIn-CHO cells assessed as increase in ERK1/2 phosphorylation after 5 mins by alphascreen assay relative to control; assay type: cell-based
# T2 sequence (whole entry): T1 sequence (P0DMS8 whole entry)
# [3] = target: T2, Adenosine receptor A3 (Homo sapiens); test: Agonist activity at human adenosine A3 receptor expressed in FlpIn-CHO cells assessed as inhibition of forskolin-mediated cAMP accumulation preincubated for 10 mins followed by forskolin addition measured after 30 mins by alphascreen assay relative to control; assay type: functional, cell-based
# Adenosine receptor A3 [4] = target: T1, Adenosine receptor A3; test: Agonist activity at human adenosine A3 receptor expressed in FlpIn-CHO cells assessed as increase in ERK1/2 phosphorylation after 5 mins by alphascreen assay; assay type: cell-based
# [5] = target: T2, Adenosine receptor A3 (Homo sapiens); test: Ratio of pEC50 for agonist activity at human adenosine A3 receptor expressed in FlpIn-CHO cells assessed as inhibition of forskolin-mediated cAMP accumulation to pEC50 for agonist activity at adenosine A3 receptor (unknown origin) expressed in serum starved CHO cells assessed as increase in cell survival after 24 hrs by propidium iodide staining-based assay; assay type: functional
# [6] = target: T2, Adenosine receptor A3 (Homo sapiens); test: Agonist activity at adenosine A3 receptor (unknown origin) expressed in serum starved CHO cells assessed as increase in cell survival after 24 hrs by propidium iodide staining-based assay relative to control
# [7] = target: T2, Adenosine receptor A3 (Homo sapiens); test: Ratio of pEC50 EC50 for agonist activity at human adenosine A3 receptor expressed in FlpIn-CHO cells assessed as inhibition of forskolin-mediated cAMP accumulation to pEC50 for agonist activity at human adenosine A3 receptor expressed in FlpIn-CHO cells assessed as increase in ERK1/2 phosphorylation; assay type: functional, cell-based
# Histamine H4 receptor [8] = target: T3, Histamine H4 receptor (Homo sapiens, UniProt Q9H3N8); test: Agonist activity at histamine H4 receptor (unknown origin) expressed in human U2OS cells increase in beta-arrestin2 recruitment after 2 hrs by luminescence assay relative to control; assay type: cell-based
# T3 sequence (Q9H3N8 whole entry): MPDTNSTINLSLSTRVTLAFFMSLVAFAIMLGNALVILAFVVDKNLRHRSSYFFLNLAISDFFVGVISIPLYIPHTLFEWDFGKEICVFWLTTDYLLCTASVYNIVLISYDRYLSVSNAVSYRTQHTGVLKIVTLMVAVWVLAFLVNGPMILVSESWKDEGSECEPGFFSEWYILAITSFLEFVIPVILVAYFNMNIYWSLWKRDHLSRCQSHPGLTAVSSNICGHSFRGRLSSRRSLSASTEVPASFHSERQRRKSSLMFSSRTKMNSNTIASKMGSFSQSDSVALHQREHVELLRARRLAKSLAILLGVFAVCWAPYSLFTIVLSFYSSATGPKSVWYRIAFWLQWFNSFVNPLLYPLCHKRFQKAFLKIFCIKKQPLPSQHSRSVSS
# Histamine H4 receptor [9] = target: T3, Histamine H4 receptor; test: Agonist activity at histamine H4 receptor (unknown origin) expressed in HEK293T cells harboring CRE-luciferase after 6 hrs by luciferase reporter gene assay relative to control; assay type: functional, cell-based
# Histamine H4 receptor [10] = target: T3, Histamine H4 receptor; test: Agonist activity at histamine H4 receptor (unknown origin) expressed in HEK293T cells harboring CRE-luciferase after 6 hrs by luciferase reporter gene assay; assay type: functional, cell-based
# Histamine H4 receptor [11] = target: T3, Histamine H4 receptor; test: Agonist activity at histamine H4 receptor (unknown origin) expressed in human U2OS cells increase in beta-arrestin2 recruitment after 2 hrs by luminescence assay; assay type: cell-based
# [12] = target: Cannabinoid receptor 2 (Mus musculus) (UniProt P47936); test: Inverse agonist activity at C-terminally prolink-tagged mouse CB2 receptor expressed in CHOK1 cells harboring beta-galactosidase enzyme fused beta-arrestin assessed as increase in beta-arrestin recruitment after 90 mins by chemiluminescent assay relative to control; assay type: cell-based
# Sequence of Cannabinoid receptor 2 (Mus musculus) (P47936 whole entry, the tested form may be a part): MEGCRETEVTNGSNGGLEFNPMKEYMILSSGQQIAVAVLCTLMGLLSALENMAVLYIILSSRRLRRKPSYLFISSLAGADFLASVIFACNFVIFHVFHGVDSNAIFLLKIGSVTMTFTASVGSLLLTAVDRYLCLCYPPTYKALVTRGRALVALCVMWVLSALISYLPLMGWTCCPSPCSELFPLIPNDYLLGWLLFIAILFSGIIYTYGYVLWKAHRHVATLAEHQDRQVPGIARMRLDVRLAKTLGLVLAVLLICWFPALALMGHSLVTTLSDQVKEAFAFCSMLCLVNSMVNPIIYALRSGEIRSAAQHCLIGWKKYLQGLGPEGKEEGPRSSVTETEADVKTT
# Cannabinoid receptor 2 [13] = target: T4, Cannabinoid receptor 2 (Mus musculus, UniProt P47936); test: Inverse agonist activity at mouse CB2 receptor expressed in HEK293 cells assessed as inhibition of forskolin-mediated cAMP accumulation after 5 mins by fluorescence assay; assay type: functional, cell-based
# T4 sequence (P47936 whole entry, the tested form may be a part): as above
# [14] = target: Cannabinoid receptor 2 (Mus musculus) (UniProt P47936); test: Ratio of EC50 for C-terminally prolink-tagged mouse CB2 receptor expressed in CHOK1 cells harboring beta-galactosidase enzyme fused beta-arrestin assessed as increase in beta-arrestin recruitment to EC50 for mouse CB2 receptor expressed in HEK293 cells assessed as inhibition of forskolin-mediated cAMP accumulation; assay type: functional, cell-based
# [15] = target: Cannabinoid receptor 2 (Mus musculus) (UniProt P47936); test: Inverse agonist activity at mouse CB2 receptor expressed in HEK293 cells assessed as inhibition of forskolin-mediated cAMP accumulation after 5 mins by fluorescence assay relative to control; assay type: functional, cell-based
# Cannabinoid receptor 2 [16] = target: T4, Cannabinoid receptor 2; test: Inverse agonist activity at C-terminally prolink-tagged mouse CB2 receptor expressed in CHOK1 cells harboring beta-galactosidase enzyme fused beta-arrestin assessed as increase in beta-arrestin recruitment after 90 mins by chemiluminescent assay; assay type: cell-based
Structure (SMILES),Emax [2] [%],Emax [3] [%],Emax [6] [%],Emax (Histamine H4 receptor [8]) [%],EC50 (Histamine H4 receptor [11]) [nM],Emax [12] [%],EC50 (Cannabinoid receptor 2 [13]) [nM],Ratio EC50 [14],Emax [15] [%],also measured
CNC(=O)[C@@]12C[C@@H]1[C@@H](n1cnc3c(NCc4cccc(Cl)c4)nc(C#Cc4ccccc4)nc31)[C@H](O)[C@@H]2O,88,78,83,–,–,–,–,–,–,EC50 (Adenosine receptor A3 [1]): 0.794 nM; EC50 (Adenosine receptor A3 [4]): 0.501 nM; Ratio [5]: 8.1; Ratio EC50 [7]: 2.1
CN1CCN(C(=O)c2cc3cc(Cl)cc([N+](=O)[O-])c3[nH]2)CC1,–,–,–,95,1000,–,–,–,–,Emax (Histamine H4 receptor [9]): 105%; EC50 (Histamine H4 receptor [10]): 398 nM
CCCCCCC(C)(C)c1cc(OC)c([C@@H]2C=C(CO)[C@H]3C[C@@H]2C3(C)C)c(OC)c1,–,–,–,–,–,3,30,39.8,60,–
CN1CCCCC1Cn1cc(C(=O)C23CC4CC(CC(C4)C2)C3)c2ccccc21 (stereo not given),–,–,–,–,–,52,15,0.079,24,EC50 (Cannabinoid receptor 2 [16]): 71 nM
CNC(=O)[C@@]12C[C@@H]1[C@@H](n1cnc3c(N(C)c4cccc(Cl)c4)nc(Cl)nc31)[C@H](O)[C@@H]2O,94,70,85,–,–,–,–,–,–,Ratio [5]: 3.1; Ratio EC50 [7]: 1.4
CNC(=O)[C@@]12C[C@@H]1[C@@H](n1cnc3c(NCc4cccc(Cl)c4)nc(C#Cc4ccc(F)c(F)c4)nc31)[C@H](O)[C@@H]2O,106,89,81,–,–,–,–,–,–,–
O=C(c1cn(CCCCCF)c2ccccc12)C12CC3CC(CC(C3)C1)C2,–,–,–,–,–,62,52,0.2,31,EC50 (Cannabinoid receptor 2 [16]): 1.5 nM
CNC(=O)[C@H]1O[C@@H](n2cnc3c(NCc4cccc(I)c4)ncnc32)[C@H](O)[C@@H]1O,106,72,85,–,–,–,–,–,–,–
CNC(=O)[C@@]12C[C@@H]1[C@@H](n1cnc3c(NCc4cccc(Cl)c4)nc(C#Cc4ccc(-c5ccccc5)cc4)nc31)[C@H](O)[C@@H]2O,95,59,85,–,–,–,–,–,–,EC50 (Adenosine receptor A3 [1]): 7.94 nM; EC50 (Adenosine receptor A3 [4]): 25.1 nM; Ratio [5]: 224; Ratio EC50 [7]: 3.2
CN1CCN(c2cc(NCc3ccccc3)nc(N)n2)CC1,–,–,–,27,63.1,–,–,–,–,Emax (Histamine H4 receptor [9]): 79%; EC50 (Histamine H4 receptor [10]): 12.6 nM
N=C(NCc1cccc(Cl)c1)SCCCc1c[nH]cn1,–,–,–,37,39.8,–,–,–,–,Emax (Histamine H4 receptor [9]): 92%; EC50 (Histamine H4 receptor [10]): 6.31 nM
CNC(=O)[C@@]12C[C@@H]1[C@@H](n1cnc3c(NCc4cccc(Cl)c4)nc(C#Cc4ccc5ccc6cccc7ccc4c5c67)nc31)[C@H](O)[C@@H]2O,107,70,79,–,–,–,–,–,–,EC50 (Adenosine receptor A3 [1]): 200 nM; EC50 (Adenosine receptor A3 [4]): 631 nM; Ratio [5]: 44; Ratio EC50 [7]: 2.6
COc1ccc(C(=O)c2c(C)n(CCN3CCOCC3)c3cc(I)ccc23)cc1,–,–,–,–,–,43,25,–,-19,EC50 (Cannabinoid receptor 2 [16]): 9 nM
CN1CCN(c2nc3cc(Cl)c(Cl)cc3[nH]c2=O)CC1,–,–,–,86,25.1,–,–,–,–,–
Cc1c(C(=O)NN2CCCCC2)nn(-c2ccc(Cl)cc2Cl)c1-c1ccc(Cl)cc1,–,–,–,–,–,-43,–,–,-11,–
CCCCCc1cc(O)c2c(c1)OC(C)(C)[C@@H]1CCC(C)=C[C@@H]21 [DRONABINOL],–,–,–,–,–,3,7.3,33.1,52,–
CCCCCn1cc(C(=O)C2C(C)(C)C2(C)C)c2ccccc21,–,–,–,–,–,70,–,0.0015,12,EC50 (Cannabinoid receptor 2 [16]): 95 nM
CCCn1c(C)c(C(=O)c2cccc3ccccc23)c2ccccc21,–,–,–,–,–,28,30,28.1,23,EC50 (Cannabinoid receptor 2 [16]): 160 nM
N=C(NCc1ccccc1Cl)SCCCc1c[nH]cn1,–,–,–,31,15.8,–,–,–,–,–
c1nc(CCn2cc(CC3CCCCC3)nn2)c[nH]1,–,–,–,17,1000,–,–,–,–,Emax (Histamine H4 receptor [9]): 82%; EC50 (Histamine H4 receptor [10]): 126 nM
